Measurements reported in PubChem BioAssay AID1259407 (Chemical Carcinogenesis Research Information System (CCRIS), 2018).
The source made the active and inactive calls. The rule behind the calls is not given here.

System: CCRIS mutagenicity, Ames/micronucleus/aberration tests
Test: CCRIS mutagenicity studies
[1] = Test System: AMES SALMONELLA TYPHIMURIUM, Strain/Indicator: TA97, Metabolic Activation: NONE, Method: STANDARD PLATE
[2] = Test System: AMES SALMONELLA TYPHIMURIUM, Strain/Indicator: TA98, Metabolic Activation: NONE, Method: STANDARD PLATE
[3] = Test System: AMES SALMONELLA TYPHIMURIUM, Strain/Indicator: TA98, Metabolic Activation: RAT, LIVER, S-9, AROCLOR 1254, Method: STANDARD PLATE
[4] = Test System: AMES SALMONELLA TYPHIMURIUM, Strain/Indicator: TA100, Metabolic Activation: NONE, Method: STANDARD PLATE
[5] = Test System: AMES SALMONELLA TYPHIMURIUM, Strain/Indicator: TA100, Metabolic Activation: RAT, LIVER, S-9, AROCLOR 1254, Method: STANDARD PLATE
[6] = Test System: AMES SALMONELLA TYPHIMURIUM, Strain/Indicator: TA102, Metabolic Activation: NONE, Method: STANDARD PLATE
[7] = Test System: AMES SALMONELLA TYPHIMURIUM, Strain/Indicator: TA102, Metabolic Activation: RAT, LIVER, S-9, AROCLOR 1254, Method: STANDARD PLATE
[8] = Test System: AMES SALMONELLA TYPHIMURIUM, Strain/Indicator: TA1535, Metabolic Activation: NONE, Method: STANDARD PLATE
[9] = Test System: AMES SALMONELLA TYPHIMURIUM, Strain/Indicator: TA1535, Metabolic Activation: RAT, LIVER, S-9, AROCLOR 1254, Method: STANDARD PLATE
[10] = Test System: AMES SALMONELLA TYPHIMURIUM, Strain/Indicator: TA98, Metabolic Activation: HAMSTER, LIVER, S-9, AROCLOR 1254, Method: PREINCUBATION
[11] = Test System: AMES SALMONELLA TYPHIMURIUM, Strain/Indicator: TA98, Metabolic Activation: NONE, Method: PREINCUBATION
[12] = Test System: AMES SALMONELLA TYPHIMURIUM, Strain/Indicator: TA98, Metabolic Activation: RAT, LIVER, S-9, AROCLOR 1254, Method: PREINCUBATION
[13] = Test System: AMES SALMONELLA TYPHIMURIUM, Strain/Indicator: TA100, Metabolic Activation: HAMSTER, LIVER, S-9, AROCLOR 1254, Method: PREINCUBATION
[14] = Test System: AMES SALMONELLA TYPHIMURIUM, Strain/Indicator: TA100, Metabolic Activation: NONE, Method: PREINCUBATION
[15] = Test System: AMES SALMONELLA TYPHIMURIUM, Strain/Indicator: TA100, Metabolic Activation: RAT, LIVER, S-9, AROCLOR 1254, Method: PREINCUBATION
[16] = Test System: AMES SALMONELLA TYPHIMURIUM, Strain/Indicator: TA1535, Metabolic Activation: HAMSTER, LIVER, S-9, AROCLOR 1254, Method: PREINCUBATION
[17] = Test System: AMES SALMONELLA TYPHIMURIUM, Strain/Indicator: TA1535, Metabolic Activation: NONE, Method: PREINCUBATION
[18] = Test System: AMES SALMONELLA TYPHIMURIUM, Strain/Indicator: TA1535, Metabolic Activation: RAT, LIVER, S-9, AROCLOR 1254, Method: PREINCUBATION
[19] = Test System: AMES SALMONELLA TYPHIMURIUM, Strain/Indicator: TA1537, Metabolic Activation: HAMSTER, LIVER, S-9, AROCLOR 1254, Method: PREINCUBATION
[20] = Test System: AMES SALMONELLA TYPHIMURIUM, Strain/Indicator: TA1537, Metabolic Activation: NONE, Method: PREINCUBATION
[21] = Test System: AMES SALMONELLA TYPHIMURIUM, Strain/Indicator: TA1537, Metabolic Activation: RAT, LIVER, S-9, AROCLOR 1254, Method: PREINCUBATION

Q: Which mutagenic call [1] does the source give for O=c1cc(-c2ccc(O)cc2)oc2cc(O)cc(O)c12 here?
A: The mutagenic call was “inactive; negative”.

Q: And the mutagenic call (Test System: AMES SALMONELLA TYPHIMURIUM, Strain/Indicator: TA97, Metabolic Activation: RAT, LIVER, S-9, AROCLOR 1254, Method: STANDARD PLATE)?
A: The mutagenic call was “inactive; negative”.

Q: What about the mutagenic call [2] of the same compound?
A: Its mutagenic call is “inactive; negative”.

Q: And the mutagenic call [3]?
A: Its mutagenic call is “inactive; negative”.

Q: What about the mutagenic call [4] of the same compound?
A: The mutagenic call was “inactive; negative”.

Q: What about the mutagenic call [5] of the same compound?
A: Its mutagenic call is “inactive; negative”.

Q: And the mutagenic call [6]?
A: The mutagenic call was “inactive; negative”.

Q: What about the mutagenic call [7] of the same compound?
A: The mutagenic call was “inactive; negative”.

Q: And the mutagenic call [8]?
A: Its mutagenic call is “inactive; negative”.

Q: And the mutagenic call [9]?
A: Its mutagenic call is “inactive; negative”.

Q: And the mutagenic call (Test System: AMES SALMONELLA TYPHIMURIUM, Strain/Indicator: TA1538, Metabolic Activation: NONE, Method: STANDARD PLATE)?
A: The mutagenic call was “inactive; negative”.

Q: What about the mutagenic call (Test System: AMES SALMONELLA TYPHIMURIUM, Strain/Indicator: TA1538, Metabolic Activation: RAT, LIVER, S-9, AROCLOR 1254, Method: STANDARD PLATE) of the same compound?
A: The mutagenic call was “inactive; negative”.

Q: And the mutagenic call (Test System: Mouse lymphoma, Strain/Indicator: L5178Y (tk+/tk-), Metabolic Activation: None, Method: Suspension/plate)?
A: The mutagenic call was “active; positive”.

Q: What about the mutagenic call (Test System: Mouse lymphoma, Strain/Indicator: L5178Y (tk+/tk-), Metabolic Activation: Rat, Liver, S-9, Aroclor 1254, Method: Suspension/plate) of the same compound?
A: The mutagenic call was “active; positive”.

Q: Clc1c(Cl)c(Cl)c2ccccc2c1Cl was tested. Which mutagenic call [10] did it give?
A: The mutagenic call was “inactive; negative”.

Q: What about the mutagenic call [11] of the same compound?
A: Its mutagenic call is “inactive; negative”.

Q: And the mutagenic call [12]?
A: The mutagenic call was “inactive; negative”.

Q: And the mutagenic call [13]?
A: Its mutagenic call is “inactive; negative”.

Q: What about the mutagenic call [14] of the same compound?
A: The mutagenic call was “inactive; negative”.

Q: And the mutagenic call [15]?
A: The mutagenic call was “inactive; negative”.

Q: What about the mutagenic call [16] of the same compound?
A: The mutagenic call was “inactive; negative”.

Q: And the mutagenic call [17]?
A: The mutagenic call was “inactive; negative”.

Q: What about the mutagenic call [18] of the same compound?
A: The mutagenic call was “inactive; negative”.

Q: What about the mutagenic call [19] of the same compound?
A: Its mutagenic call is “inactive; negative”.

Q: And the mutagenic call [20]?
A: Its mutagenic call is “inactive; negative”.

Q: And the mutagenic call [21]?
A: Its mutagenic call is “inactive; negative”.

Q: How did the mutagenic call (End Point: In vivo micronucleus, Test System: Bone marrow erythrocytes, Species: Mouse, Strain/Sex: Swiss albino/Male, Route: Oral) turn out when CN(C)C(=N)N=C(N)N was run?
A: Its mutagenic call is “inactive; negative”.

Q: What does the source list for Cc1ccc(N(N)c2ccc(C)cc2)cc1?
A: mutagenic call [4]: inactive; negative; mutagenic call [5]: active; positive; mutagenic call [6]: active; positive; mutagenic call [7]: active; positive

Q: With Oc1cccc2c1ccc1c3ccccc3ccc21 as the compound, how does the mutagenic call [3] read?
A: The mutagenic call was “inactive; negative”.

Q: What about the mutagenic call [4] of the same compound?
A: Its mutagenic call is “inactive; negative”.

Q: c1ccc(CNc2ncnc3nc[nH]c23)cc1 was tested. Which mutagenic call [2] did it give?
A: Its mutagenic call is “inactive; negative”.

Q: What about the mutagenic call (Test System: AMES SALMONELLA TYPHIMURIUM, Strain/Indicator: TA98, Metabolic Activation: RAT LIVER S-9, 3-METHYLCHOLANTHRENE AND PHENOBARBITAL, Method: STANDARD PLATE) of the same compound?
A: The mutagenic call was “inactive; negative”.

Q: What about the mutagenic call (Test System: AMES SALMONELLA TYPHIMURIUM, Strain/Indicator: TA98, Metabolic Activation: RAT, LIVER, S-9, AROCLOR, Method: STANDARD PLATE) of the same compound?
A: Its mutagenic call is “inactive; negative”.

Q: And the mutagenic call [4]?
A: The mutagenic call was “inactive; negative”.

Q: And the mutagenic call (Test System: AMES SALMONELLA TYPHIMURIUM, Strain/Indicator: TA100, Metabolic Activation: RAT LIVER S-9, 3-METHYLCHOLANTHRENE AND PHENOBARBITAL, Method: STANDARD PLATE)?
A: The mutagenic call was “inactive; negative”.

Q: And the mutagenic call (Test System: AMES SALMONELLA TYPHIMURIUM, Strain/Indicator: TA100, Metabolic Activation: RAT, LIVER, S-9, AROCLOR, Method: STANDARD PLATE)?
A: Its mutagenic call is “inactive; negative”.

Q: And the mutagenic call (Test System: CHINESE HAMSTER V-79, Strain/Indicator: V-79/6-THIOGUANINE (HGPRT), Metabolic Activation: NONE, Method: STANDARD PLATE)?
A: The mutagenic call was “inactive; negative”.

Q: What does the source list for COc1cc(OC)c2c(=O)c3cc(OC)ccc3oc2c1?
A: mutagenic call (Test System: AMES SALMONELLA TYPHIMURIUM, Strain/Indicator: TA97, Metabolic Activation: RAT, LIVER, S-9, PHENOBARBITAL AND 5,6-BENZOFLAVONE, Method: PREINCUBATION): active; positive; mutagenic call (Test System: AMES SALMONELLA TYPHIMURIUM, Strain/Indicator: TA98, Metabolic Activation: RAT, LIVER, S-9, PHENOBARBITAL AND 5,6-BENZOFLAVONE, Method: PREINCUBATION): inactive; negative; mutagenic call (Test System: AMES SALMONELLA TYPHIMURIUM, Strain/Indicator: TA100, Metabolic Activation: RAT, LIVER, S-9, PHENOBARBITAL AND 5,6-BENZOFLAVONE, Method: PREINCUBATION): active; positive; mutagenic call (Test System: AMES SALMONELLA TYPHIMURIUM, Strain/Indicator: TA2637, Metabolic Activation: NONE, Method: PREINCUBATION): active; positive; mutagenic call (Test System: AMES SALMONELLA TYPHIMURIUM, Strain/Indicator: TA2637, Metabolic Activation: RAT, LIVER, S-9, PHENOBARBITAL AND 5,6-BENZOFLAVONE, Method: PREINCUBATION): active; positive

Q: What does the source list for CC(C)(Cl)Cl?
A: mutagenic call (Test System: AMES SALMONELLA TYPHIMURIUM, Strain/Indicator: GSTT1, Metabolic Activation: RAT, LIVER, S-9, AROCLOR 1254, Method: STANDARD PLATE): inactive; negative; mutagenic call (Test System: AMES SALMONELLA TYPHIMURIUM, Strain/Indicator: RSJ100, Metabolic Activation: NONE, Method: STANDARD PLATE): inactive; negative; mutagenic call [2]: inactive; negative; mutagenic call [3]: inactive; negative; mutagenic call [4]: inactive; negative; mutagenic call [5]: inactive; negative; mutagenic call (Test System: AMES SALMONELLA TYPHIMURIUM, Strain/Indicator: TA104, Metabolic Activation: NONE, Method: STANDARD PLATE): inactive; negative; mutagenic call (Test System: AMES SALMONELLA TYPHIMURIUM, Strain/Indicator: TA104, Metabolic Activation: RAT, LIVER, S-9, AROCLOR 1254, Method: STANDARD PLATE): inactive; negative; mutagenic call [8]: inactive; negative; mutagenic call [9]: inactive; negative

Q: With CC(C)Nc1nc(N)nc(Cl)n1 as the compound, how does the mutagenic call [1] read?
A: The mutagenic call was “inactive; negative”.

Q: What about the mutagenic call [2] of the same compound?
A: The mutagenic call was “inactive; negative”.

Q: What about the mutagenic call [4] of the same compound?
A: Its mutagenic call is “inactive; negative”.

Q: Which mutagenic call (End Point: IN VITRO CHROMOSOMAL ABERRATIONS, Test System: CHO CELLS, Metabolic Activation: NONE) does the source give for OCCNCCO here?
A: The mutagenic call was “inactive; negative”.

Q: And the mutagenic call (End Point: IN VITRO CHROMOSOMAL ABERRATIONS, Test System: CHO CELLS, Metabolic Activation: RAT, LIVER, S-9, AROCLOR 1254)?
A: The mutagenic call was “inactive; negative; weak response at highest dose”.

Q: And the mutagenic call [10]?
A: The mutagenic call was “inactive; negative”.

Q: And the mutagenic call [11]?
A: Its mutagenic call is “inactive; negative”.

Q: And the mutagenic call [12]?
A: Its mutagenic call is “inactive; negative”.

Q: What about the mutagenic call [13] of the same compound?
A: Its mutagenic call is “inactive; negative”.

Q: And the mutagenic call [14]?
A: Its mutagenic call is “inactive; negative”.

Q: What about the mutagenic call [15] of the same compound?
A: The mutagenic call was “inactive; negative”.

Q: And the mutagenic call [16]?
A: The mutagenic call was “inactive; negative”.

Q: What about the mutagenic call [17] of the same compound?
A: The mutagenic call was “inactive; negative”.

Q: And the mutagenic call [18]?
A: The mutagenic call was “inactive; negative”.

Q: And the mutagenic call [19]?
A: The mutagenic call was “inactive; negative”.

Q: What about the mutagenic call [20] of the same compound?
A: The mutagenic call was “inactive; negative”.

Q: And the mutagenic call [21]?
A: The mutagenic call was “inactive; negative”.
